Laboratory results: patent US20170027917A1, “PHARMACEUTICAL COMPOSITIONS COMPRISING ANTIBACTERIAL AGENTS” (priority 2014, published 2017)
Where two headings read alike, the source gives them in different places.

Assays:
Assay in all cases: MIC determination in Muller Hinton Agar (CLSI agar dilution)
Assay type in all cases: cell-based
[1] = tested on: Citrobacter sp S123A
Description: (§1) The antibacterial activity of combinations according to the invention against resistant bacterial strains was investigated. Minimum Inhibitory Concentration (MIC) determination for the combinations according to invention was carried out in Muller Hinton Agar (MHA) (BD, USA) according to Clinical and Laboratory Standards Institute (CLSI) recommendations, (Clinical and Laboratory Standards Institute (CLSI), Performance Standards for Antimicrobial Susceptibility Testing, 20th Informational Supplement, M 100-S20, Volume 30, No. 1, 2010). In short, the test strains were adjusted to deliver about 10^4 CFU per spot with a multipoint inoculator (Applied Quality Services, UK). The plates were pored with MHA containing doubling concentration range of the test combinations according to invention. The plates were inoculated and were incubated at 35° C. for 18 hours.

[2] = tested on: E. cloacae J137; settings: Enterobacter cloacae
Description: as §1

[3] = tested on: E. coli M50; settings: Escherichia coli
Description: as §1

[4] = tested on: E. coli NCTC 13352; settings: Escherichia coli, NCTC13352
Description: as §1

[5] = tested on: E. coli S206; settings: Escherichia coli
Description: as §1

[6] = tested on: K. pneumoniae ATCC 700603; settings: Klebsiella pneumoniae, ATCC700603
Description: as §1

[7] = tested on: K. pneumoniae H521; settings: Klebsiella pneumoniae
Description: as §1

[8] = tested on: K. pneumoniae J102; settings: Klebsiella pneumoniae
Description: as §1

[9] = tested on: K. pneumoniae J125; settings: Klebsiella pneumoniae
Description: as §1

[10] = tested on: P. aeruginosa 1405; settings: Pseudomonas aeruginosa; P. aeruginosa 1405, Derepressed AmpC; agent alone
Description: as §1

[11] = tested on: P. aeruginosa 2779; settings: Pseudomonas aeruginosa
Description: as §1

Compound | MIC [1] | MIC ([2]; E. cloacae J137, P99, agent alone, read-out: MIC) | MIC ([3]; E. coli M50, CMY-2, agent alone, read-out: MIC) | MIC ([4]; E. coli NCTC 13352, TEM-10, agent alone, read-out: MIC) | MIC ([5]; E. coli S206, Class C, agent alone, read-out: MIC) | MIC ([6]; K. pneumoniae ATCC 700603, SHV-18, agent alone, read-out: MIC) | MIC ([7]; K. pneumoniae H521, KPC, SHV, TEM, agent alone, read-out: MIC) | MIC ([8]; K. pneumoniae J102, OMP, SHV, TEM, agent alone, read-out: MIC) | MIC ([9]; K. pneumoniae J125, KPC3, SHV, TEM, agent alone, read-out: MIC) | MIC [10] | MIC ([11]; P. aeruginosa 2779, AmpC, agent alone, read-out: MIC) | MIC ([2]; J137) | MIC ([3]; M50) | MIC [4] | MIC ([5]; S206) | MIC [6] | MIC ([7]; H521) | MIC ([8]; J102) | MIC ([9]; J125) | MIC [11]; 2779
C[C@@H](O)[C@H]1C(=O)N2C(C(=O)O)=C(SCCN=CN)C[C@H]12 [Imipenem] | 4 µg/mL | 1 µg/mL | 0.5 µg/mL | 0.25 µg/mL | 0.25 µg/mL | 0.5 µg/mL | 32 µg/mL | 4 µg/mL | 8 µg/mL | 16 µg/mL | 2 µg/mL |  |  |  |  |  |  |  |  | 
Cn1c(N)c(NC(=O)NCCN)c[n+]1CC1=C(C(=O)O)N2C(=O)[C@@H](NC(=O)/C(=N\OC(C)(C)C(=O)[O-])c3nsc(N)n3)[C@H]2SC1 [Ceftolozane] | > 32 µg/mL |  |  |  |  |  |  |  |  | 8 µg/mL |  | > 32 µg/mL | > 32 µg/mL | > 32 µg/mL | > 32 µg/mL | 4 µg/mL | > 32 µg/mL | > 32 µg/mL | 32 µg/mL | 4 µg/mL
